Measurements from the NIST ThermoML archive (doi:10.1016/j.fluid.2004.09.013).

Conditions: for mass density: Fluid (supercritical or subcritical phases), Vibrating tube method; for vapor or sublimation pressure: Liquid

C/C=C\C [(Z)-2-butene]
Conditions | mass density [kg/m3]
273.24 K, 530 kPa | 644.99
273.24 K, 5019 kPa | 650.08
273.24 K, 10002 kPa | 655.33
273.24 K, 15013 kPa | 660.23
273.24 K, 19996 kPa | 664.79
273.24 K, 24988 kPa | 669.08
273.24 K, 29997 kPa | 673.15
273.24 K, 35005 kPa | 677.01
273.24 K, 39991 kPa | 680.66
278.25 K, 531 kPa | 639.3
278.25 K, 4987 kPa | 644.61
278.25 K, 10000 kPa | 650.13
278.25 K, 15004 kPa | 655.23
278.25 K, 19984 kPa | 659.97
278.25 K, 25004 kPa | 664.45
278.25 K, 30003 kPa | 668.65
278.25 K, 34993 kPa | 672.62
278.25 K, 39994 kPa | 676.39
283.26 K, 528 kPa | 633.56
283.26 K, 5005 kPa | 639.17
283.26 K, 9984 kPa | 644.91
283.26 K, 14999 kPa | 650.24
283.26 K, 19995 kPa | 655.17
283.26 K, 25010 kPa | 659.81
283.26 K, 29992 kPa | 664.14
283.26 K, 35004 kPa | 668.25
283.26 K, 39997 kPa | 672.15
288.27 K, 531 kPa | 627.75
288.27 K, 4995 kPa | 633.64
288.27 K, 10005 kPa | 639.69
288.27 K, 14999 kPa | 645.22
288.27 K, 20014 kPa | 650.37
288.27 K, 25005 kPa | 655.16
288.27 K, 29991 kPa | 659.64
288.27 K, 34992 kPa | 663.87
288.27 K, 40003 kPa | 667.9
293.28 K, 532 kPa | 621.87
293.28 K, 4990 kPa | 628.07
293.28 K, 10006 kPa | 634.4
293.28 K, 20011 kPa | 645.53
293.28 K, 25006 kPa | 650.48
293.28 K, 30000 kPa | 655.14
293.28 K, 34996 kPa | 659.52
293.28 K, 39986 kPa | 663.65
293.29 K, 14995 kPa | 640.16
298.29 K, 29993 kPa | 650.63
298.3 K, 528 kPa | 615.89
298.3 K, 5009 kPa | 622.46
298.3 K, 9991 kPa | 629.06
298.3 K, 14998 kPa | 635.11
298.3 K, 20004 kPa | 640.67
298.3 K, 24996 kPa | 645.82
298.3 K, 34987 kPa | 655.14
298.3 K, 40002 kPa | 659.43
303.31 K, 568 kPa | 609.88
303.31 K, 4986 kPa | 616.72
303.31 K, 9987 kPa | 623.69
303.31 K, 15011 kPa | 630.03
303.31 K, 20004 kPa | 635.8
303.31 K, 25003 kPa | 641.15
303.31 K, 29993 kPa | 646.12
303.31 K, 34986 kPa | 650.78
303.31 K, 40003 kPa | 655.2
308.32 K, 610 kPa | 603.77
308.32 K, 5003 kPa | 610.96
308.32 K, 9990 kPa | 618.26
308.32 K, 14985 kPa | 624.84
308.32 K, 19996 kPa | 630.86
308.32 K, 24991 kPa | 636.41
308.32 K, 29986 kPa | 641.56
308.32 K, 34983 kPa | 646.37
308.32 K, 40002 kPa | 650.92
313.2 K, 842 kPa | 598.01
313.2 K, 25002 kPa | 631.74
313.21 K, 4983 kPa | 605.15
313.21 K, 9999 kPa | 612.86
313.21 K, 14998 kPa | 619.73
313.21 K, 19993 kPa | 625.98
313.21 K, 29990 kPa | 637.05
313.21 K, 34989 kPa | 642.02
313.21 K, 39990 kPa | 646.68
318.21 K, 898 kPa | 591.77
318.21 K, 4989 kPa | 599.26
318.21 K, 9999 kPa | 607.36
318.21 K, 14989 kPa | 614.54
318.21 K, 19986 kPa | 621.05
318.21 K, 24990 kPa | 627.03
318.21 K, 30002 kPa | 632.56
318.21 K, 34994 kPa | 637.68
318.21 K, 39987 kPa | 642.47
323.21 K, 965 kPa | 585.41
323.21 K, 4984 kPa | 593.22
323.21 K, 9985 kPa | 601.76
323.21 K, 14986 kPa | 609.3
323.21 K, 20004 kPa | 616.11
323.21 K, 25000 kPa | 622.31
323.21 K, 29993 kPa | 628.01
323.21 K, 34993 kPa | 633.32
323.21 K, 40000 kPa | 638.29
328.21 K, 14983 kPa | 604.03
328.21 K, 25010 kPa | 617.59
328.21 K, 34998 kPa | 628.95
328.21 K, 40002 kPa | 634.07
328.22 K, 1031 kPa | 578.91
328.22 K, 4985 kPa | 587.11
328.22 K, 9992 kPa | 596.13
328.22 K, 19995 kPa | 611.12
328.22 K, 29991 kPa | 623.48
333.22 K, 1102 kPa | 572.28
333.22 K, 4993 kPa | 580.89
333.22 K, 10002 kPa | 590.44
333.22 K, 14991 kPa | 598.72
333.22 K, 19994 kPa | 606.12
333.22 K, 24988 kPa | 612.8
333.22 K, 30003 kPa | 618.94
333.22 K, 34991 kPa | 624.59
333.22 K, 40010 kPa | 629.87
338.22 K, 1174 kPa | 565.5
338.22 K, 4996 kPa | 574.54
338.22 K, 9996 kPa | 584.64
338.22 K, 14984 kPa | 593.34
338.22 K, 19986 kPa | 601.06
338.22 K, 25003 kPa | 608.03
338.22 K, 29995 kPa | 614.37
338.22 K, 34988 kPa | 620.2
338.22 K, 39995 kPa | 625.64
343.22 K, 1261 kPa | 558.56
343.22 K, 4987 kPa | 568.03
343.22 K, 9997 kPa | 578.77
343.22 K, 14987 kPa | 587.91
343.22 K, 19988 kPa | 595.98
343.22 K, 25014 kPa | 603.24
343.22 K, 30005 kPa | 609.78
343.22 K, 34992 kPa | 615.82
343.22 K, 40014 kPa | 621.42
348.22 K, 1356 kPa | 551.46
348.22 K, 4981 kPa | 561.37
348.22 K, 10002 kPa | 572.81
348.22 K, 14996 kPa | 582.44
348.22 K, 19993 kPa | 590.86
348.22 K, 25004 kPa | 598.39
348.22 K, 30012 kPa | 605.19
348.22 K, 34983 kPa | 611.41
348.22 K, 39993 kPa | 617.18
353.22 K, 1456 kPa | 544.16
353.22 K, 5002 kPa | 554.62
353.22 K, 14994 kPa | 576.89
353.22 K, 19998 kPa | 585.7
353.22 K, 24991 kPa | 593.51
353.22 K, 29987 kPa | 600.55
353.22 K, 34994 kPa | 606.99
353.22 K, 40002 kPa | 612.94
353.23 K, 10003 kPa | 566.75
358.22 K, 1569 kPa | 536.68
358.22 K, 4987 kPa | 547.6
358.22 K, 9992 kPa | 560.57
358.22 K, 15002 kPa | 571.3
358.22 K, 19998 kPa | 580.5
358.22 K, 24995 kPa | 588.63
358.22 K, 29992 kPa | 595.93
358.22 K, 34990 kPa | 602.57
358.22 K, 40000 kPa | 608.7
363.23 K, 1690 kPa | 528.95
363.23 K, 4993 kPa | 540.42
363.23 K, 9989 kPa | 554.28
363.23 K, 15000 kPa | 565.61
363.23 K, 19996 kPa | 575.23
363.23 K, 25014 kPa | 583.72
363.23 K, 29996 kPa | 591.25
363.23 K, 34991 kPa | 598.13
363.23 K, 40007 kPa | 604.46
368.22 K, 1794 kPa | 520.86
368.22 K, 4994 kPa | 533.05
368.22 K, 9998 kPa | 547.94
368.22 K, 15001 kPa | 559.86
368.22 K, 20006 kPa | 569.97
368.22 K, 24996 kPa | 578.78
368.22 K, 30000 kPa | 586.63
368.23 K, 35006 kPa | 593.73
368.23 K, 40001 kPa | 600.21
373.23 K, 1956 kPa | 512.69
373.23 K, 5016 kPa | 525.44
373.23 K, 10014 kPa | 541.44
373.23 K, 15017 kPa | 554.07
373.23 K, 20017 kPa | 564.64
373.23 K, 25015 kPa | 573.81
373.23 K, 30004 kPa | 581.92
373.23 K, 35002 kPa | 589.24
373.23 K, 39988 kPa | 595.91
378.23 K, 2103 kPa | 504.11
378.23 K, 5016 kPa | 517.48
378.23 K, 9997 kPa | 534.7
378.23 K, 15005 kPa | 548.12
378.23 K, 19992 kPa | 559.18
378.23 K, 24999 kPa | 568.75
378.23 K, 29991 kPa | 577.18
378.23 K, 34989 kPa | 584.74
378.23 K, 39985 kPa | 591.64
383.23 K, 2265 kPa | 495.17
383.23 K, 4994 kPa | 509.13
383.23 K, 9994 kPa | 527.89
383.23 K, 15008 kPa | 542.15
383.23 K, 20012 kPa | 553.81
383.23 K, 24996 kPa | 563.74
383.23 K, 29984 kPa | 572.46
383.23 K, 34981 kPa | 580.28
383.23 K, 40007 kPa | 587.41
388.23 K, 2438 kPa | 485.86
388.23 K, 4986 kPa | 500.47
388.23 K, 9987 kPa | 520.91
388.23 K, 14983 kPa | 536.02
388.23 K, 19990 kPa | 548.28
388.23 K, 24990 kPa | 558.67
388.23 K, 30000 kPa | 567.77
388.23 K, 34996 kPa | 575.85
388.23 K, 39999 kPa | 583.17
393.23 K, 2620 kPa | 476.09
393.23 K, 4998 kPa | 491.49

Conditions | vapor or sublimation pressure [kPa]
290.72 K | 166.5
297.95 K | 212.17
306.92 K | 280.95
316.39 K | 369.5
326.09 K | 483.32
331.25 K | 549.64
335.93 K | 625.67
344.91 K | 767.01
345.17 K | 778.59
353.84 K | 949.22
364.75 K | 1196.6
367.83 K | 1274.3
376.36 K | 1508.8
380.95 K | 1643.2
382.47 K | 1703.7
390.94 K | 1988
